Data from ChEMBL document CHEMBL1201862, “PubChem BioAssay data set” (2004).
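Cells were grown in 96-well plates and exposed to each compound for 48 hours at five concentrations; endpoints were interpolated linearly between bracketing concentrations, or set to the highest concentration if not reached. Here, GI50 denotes the concentration required for 50% inhibition of growth.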 Calls of active or inactive are those of the source. No stated cut-off is given here; in the data, active = GI50 up to about 1.1 µM and inactive = higher.

Legend:
Experiment in all cases: NCI-60 cell line screen, 48 h
DU-145 = tested on: DU-145
EKVX = tested on: EKVX
HCT-15 = tested on: HCT-15
KM12 = tested on: KM12
LOX IMVI = tested on: LOX IMVI
MCF7 = tested on: MCF7
MDA-MB-435 = tested on: MDA-MB-435
MDA-N = tested on: MDA-N
Malme-3M = tested on: Malme-3M
OVCAR-3 = tested on: OVCAR-3
OVCAR-4 = tested on: OVCAR-4
OVCAR-8 = tested on: OVCAR-8
PC-3 = tested on: PC-3
RXF 393 = tested on: RXF 393
SF-268 = tested on: SF-268
SK-MEL-2 = tested on: SK-MEL-2
SK-MEL-5 = tested on: SK-MEL-5
SNB-19 = tested on: SNB-19
UACC-62 = tested on: UACC-62

SMILES	GI50 (DU-145)	GI50 (EKVX)	GI50 (HCT-15)	GI50 (KM12)	GI50 (LOX IMVI)	GI50 (MCF7)	GI50 (MDA-MB-435)	GI50 (MDA-N)	GI50 (Malme-3M)	GI50 (OVCAR-3)	GI50 (OVCAR-4)	GI50 (OVCAR-8)	GI50 (PC-3)	GI50 (RXF 393)	GI50 (SF-268)	GI50 (SK-MEL-2)	GI50 (SK-MEL-5)	GI50 (SNB-19)	GI50 (UACC-62)
CCOC(=O)CCC(NC(=O)c1ccc(Nc2nc3ccccc3nc2C(=O)OCC)s1)C(=O)OCC (stereo not given)	> 100 µM (inactive)	> 100 µM (inactive)	> 100 µM	85.1 µM (inactive)	> 100 µM (inactive)	> 100 µM (inactive)	> 100 µM (inactive)	> 100 µM (inactive)	> 100 µM (inactive)	> 100 µM (inactive)	37.2 µM (inactive)	19.5 µM (inactive)	> 100 µM (inactive)	66.1 µM (inactive)	98.4 µM (inactive)	> 100 µM (inactive)	> 100 µM (inactive)	95.1 µM (inactive)	59.2 µM (inactive)
O=C(C/N=C(\CN(c1ccccc1)c1ccccc1)Oc1ccc(Cl)cc1Cl)n1ccnc1	> 100 µM (inactive)	> 100 µM (inactive)	> 100 µM	> 100 µM (inactive)	> 100 µM (inactive)	> 100 µM (inactive)	> 100 µM (inactive)	> 100 µM (inactive)	> 100 µM (inactive)	> 100 µM (inactive)	> 100 µM (inactive)	> 100 µM (inactive)	> 100 µM (inactive)	> 100 µM (inactive)	> 100 µM (inactive)	> 100 µM (inactive)	> 100 µM (inactive)	> 100 µM (inactive)	> 100 µM (inactive)
COc1ccc(/C=N/n2c(Cc3ccc(Cl)cc3)n[nH]c2=O)c(OC)c1	67.8 µM (inactive)	33.1 µM (inactive)	36.3 µM	27.3 µM (inactive)	60.5 µM (inactive)	33.6 µM (inactive)	36.8 µM (inactive)	57.9 µM (inactive)	> 100 µM (inactive)	35.2 µM (inactive)	16 µM (inactive)	33 µM (inactive)	28.8 µM (inactive)	19.1 µM (inactive)	13.5 µM (inactive)	53 µM (inactive)	> 10 µM (inactive)	20.7 µM (inactive)	24.9 µM (inactive)
O=C1c2ccccc2CN1c1ccc(O)cc1	> 100 µM (inactive)	> 100 µM (inactive)	> 100 µM	> 100 µM (inactive)	> 100 µM (inactive)	> 100 µM (inactive)	> 100 µM (inactive)	> 100 µM (inactive)	> 100 µM (inactive)	> 100 µM (inactive)	> 100 µM (inactive)	> 100 µM (inactive)	> 100 µM (inactive)	> 100 µM (inactive)	> 100 µM (inactive)	> 100 µM (inactive)	> 100 µM (inactive)	> 100 µM (inactive)	> 100 µM (inactive)
COc1ccc(C(SCCO)(c2ccccc2)c2ccccc2)cc1	13.6 µM (inactive)	12.9 µM (inactive)	11.9 µM	14.1 µM (inactive)	18.1 µM (inactive)	10.5 µM (inactive)	10.5 µM (inactive)	8.26 µM (inactive)	18.9 µM (inactive)	14 µM (inactive)	15.6 µM (inactive)	17.9 µM (inactive)	11.9 µM (inactive)	16.1 µM (inactive)	14.6 µM (inactive)	13.1 µM (inactive)	10.1 µM (inactive)	15.7 µM (inactive)	14.3 µM (inactive)
COc1ccc(NS(=O)(=O)c2ccc(NC(NC(=O)CC(C)C)(C(F)(F)F)C(F)(F)F)cc2)nn1	> 100 µM (inactive)	> 100 µM (inactive)	> 100 µM	> 100 µM (inactive)	> 100 µM (inactive)	> 100 µM (inactive)	> 100 µM (inactive)	> 100 µM (inactive)	> 100 µM (inactive)	> 100 µM (inactive)	> 100 µM (inactive)	> 100 µM (inactive)	> 100 µM (inactive)	> 100 µM (inactive)	> 100 µM (inactive)	> 100 µM (inactive)	> 100 µM (inactive)	> 100 µM (inactive)	> 100 µM (inactive)
COc1cc(-c2oc3c(OC)c(O)c(OC)c(O)c3c(=O)c2OC)cc(O)c1OC	37.1 µM (inactive)	39.2 µM (inactive)	35.3 µM	14.3 µM (inactive)	28.4 µM (inactive)	29.6 µM (inactive)	19.6 µM (inactive)	17.7 µM (inactive)	23.9 µM (inactive)	24.7 µM (inactive)	> 100 µM (inactive)	37.9 µM (inactive)	33.3 µM (inactive)	27.1 µM (inactive)	–	55.1 µM (inactive)	21.4 µM (inactive)	65.9 µM (inactive)	22.4 µM (inactive)
O/N=C1/C2CC3CC1(c1ccccc1)CC(/C3=N/O)/C2=N\O (stereo not given)	> 100 µM (inactive)	> 100 µM (inactive)	> 100 µM	> 100 µM (inactive)	> 100 µM (inactive)	> 100 µM (inactive)	> 100 µM (inactive)	> 100 µM (inactive)	> 100 µM (inactive)	> 100 µM (inactive)	> 100 µM (inactive)	> 100 µM (inactive)	95.9 µM (inactive)	> 100 µM (inactive)	–	> 100 µM (inactive)	> 100 µM (inactive)	> 100 µM (inactive)	> 100 µM (inactive)
